Measured values reported in patent US20260374792A1, “PHENYL-FREE BISCATIONIC QUATERNARY PHOSPHONIUM COMPOUNDS AS ANTIMICROBIAL AGENTS” (priority 2022, published 2026).
Read-outs that look alike come from different tables or passages of the source.

How the values were obtained:
MSSA (SH1000) = experiment: MIC against methicillin-susceptible S. aureus (MSSA); format: cell-based; settings: Staphylococcus aureus
Method: (§1) The term “minimum inhibitory concentration (MIC)” means the lowest concentration of an antimicrobial agent that will inhibit the visible growth of a microorganism after overnight incubation. MIC values against bacteria, for example, the Gram-positive Staphylococcus aureus and Enterococcus faecalis and the Gram-negative Escherichia coli and Pseudomonas aeruginosa were determined by standard methods. See also P. A. Wayne, Methods for Dilution Antimicrobial Tests for Bacteria that Grow Aerobically; Approved Standard, Ninth Edition, 2012, CLSI Document M07-A9, Vol. 32 No. 2.
(§2) Biological testing procedures were adapted from prior work by Melander and coworkers. For all biological assays, laboratory strains of methicillin-susceptible Staphylococcus aureus MSSA (SH1000), Staphylococcus aureus CA-MRSA (USA300-0114), Staphylococcus aureus HA-MRSA (ATCC 33591), Escherichia coli (MC4100), Enterococcus faecalis (OG1RF), Acinetobacter baumannii (ATCC 17978), were grown with shaking at 37 °C overnight from freezer stocks in 5 mL of the indicated media: SH1000, OG1RF, MC4100, USA300-0114, and ATCC 17978 were grown in BDTM Mueller-Hinton broth (MHB), whereas ATCC 33591 was grown in BDTM tryptic soy broth (TSB). The inoculum were then streaked onto Mueller-Hinton agar (MHA) plates and grown overnight at 37 °C. From the plates, single colonies were selected, diluted into 50 mL of fresh media and grown overnight at 37 °C with shaking for use in the MIC assays. Optical density (OD) measurements were obtained using a SpectraMax iD3 plate reader (Molecular Devices, United States).
(§3) Compounds were serially diluted two-fold from stock solutions (1.0 mM) to yield twelve 100 μL test concentrations, wherein the starting concentration of dimethyl sulfoxide (DMSO) was 2.5%. Overnight S. aureus, E. faecalis, E. coli, A. baumannii, USA300-0114 (CA-MRSA), and ATCC 33591 (HA-MRSA) cultures were diluted to ca. 10^6 CFU/mL in MHB or TSB and regrown to mid-exponential phase, as determined by optical density recorded at 600 nm (OD600). All cultures were then diluted again to ca. 10^6 CFU/mL and 100 μL were inoculated into each well of a U-bottom 96-well plate (Corning, 351177) containing 100 μL of compound solution. Plates were incubated statically at 37 °C for 72 hours upon which wells were evaluated visually for bacterial growth. The MIC was determined as the lowest concentration of compound resulting in no bacterial growth visible to the naked eye, based on the highest value in three independent experiments. Aqueous DMSO controls were conducted as appropriate for each compound.
(§4) The prepared library of biscationic amphiphilic compounds was assessed for performance as antibacterial disinfectants by determining the minimum inhibitory concentration (MIC) for each against a panel of bacteria. The bacteria selected for the study were chosen to evaluate the broad spectrum antimicrobial performance of the QPCs, and therefore, included both Gram-positive and Gram-negative bacterial strains, including those with known antimicrobial resistance mechanisms. These bacteria include the Gram-positive strains of methicillin-susceptible Staphylococcus aureus [MSSA; SH1000], community-acquired methicillin-resistant Staphylococcus aureus [CA-MRSA; USA 300-0114], hospital-acquired methicillin-resistant Staphylococcus aureus [HA-MRSA; ATCC 33591] and the […], Escherichia coli [MC4100], Acinetobacter baumannii [ATCC 17498] and Pseudomonas aeruginosa [PAO1].

CA-MRSA (USA300-0114) = experiment: MIC against community-acquired methicillin-resistant S. aureus (CA-MRSA); format: cell-based; settings: Staphylococcus aureus, 72 h
Method: as §1, §2, §3, §4

HA-MRSA (ATCC 33591) = experiment: MIC against hospital-acquired methicillin-resistant S. aureus (HA-MRSA); format: cell-based; settings: Staphylococcus aureus, 72 h
Method: as §1, §2, §3, §4

E. faecalis (OG1RF) = experiment: MIC against E. faecalis; format: cell-based; settings: Enterococcus faecalis, 72 h
Method: as §1, §2, §3, §4

E. coli (MC4100) = experiment: MIC against E. coli; format: cell-based; settings: Escherichia coli, 72 hours, 37 °C
Method: as §1, §2, §3, §4

A. baumannii = experiment: MIC against A. baumannii; format: cell-based; settings: Acinetobacter baumannii, 72 h
Method: as §1, §2, §3, §4

P. aeruginosa (PAO1) = experiment: MIC against P. aeruginosa; format: cell-based; settings: Pseudomonas aeruginosa
Method: as §1, §2, §3, §4

red blood cells = experiment: Red Blood Cell (RBC) Lysis Assay (lysis20); format: cell-based, sheep; settings: concentration inducing 20% RBC lysis; sheep blood, 1 hour, 37 °C
Method: RBC lysis assays were performed on mechanically defibrinated sheep blood (Hemostat Labs: DSB030). An aliquot of 1.5 mL blood was placed into a microcentrifuge tube and centrifuged at 3,800 rpm for ten minutes. The supernatant was removed, and the cells were resuspended with 1 mL of phosphate-buffered saline (PBS). The suspension was centrifuged as described above, the supernatant was removed, and cells were resuspended 4 additional times in 1 mL PBS. The final cell suspension was diluted twentyfold with PBS. Compounds were serially diluted with PBS two-fold from stock solutions (1.0 mM) to yield 100 μL of twelve test concentrations on a flat-bottom 96-well plate (Corning, 351172), wherein the starting concentration of DMSO was 2.5%. To each of the wells, 100 μL of the twentyfold suspension dilution was then inoculated. TritonX (1% by volume) served as a positive control (100% lysis marker) and sterile PBS served as a negative control (0% lysis marker). Samples were then placed in an incubator at 37 °C and shaken at 200 rpm. After 1 hour, the samples were centrifuged at 3,800 rpm for ten minutes. The absorbance of the supernatant was measured with a UV spectrometer at a 540 nm wavelength. The concentration inducing 20% RBC lysis was then calculated for each compound based upon the absorbances of the TritonX and PBS controls. Aqueous DMSO controls were conducted as appropriate for each compound.
The potential cytotoxicity of the compounds was also considered with the evaluation of hemolysis (lysis20) assays with 20% lysis of red blood cells serving as an indicator of potentially toxic compounds. Finally, the bioactivity of these compounds were benchmarked against a commercial benzalkonium chloride source (BAC; 70% benzyldimethyldodecylammonium chloride, and 30% benzyldimethyltetradecylammonium chloride) as well as some previously reported disinfectant compounds from the inventors' groups; included were bisQPC ^PhP6P-10,10 as well as ^PhP2P-10,10 and 12(2)12. A detailed description of the experimental procedures used to evaluate bioactivity and hemolysis assays are described above.

[1] = MSSA (SH1000), 72 hours, 37 °C, read-out: MIC
[2] = P. aeruginosa (PAO1), 72 hours, 37 °C, read-out: MIC

Row | SMILES | MIC (MSSA (SH1000); [1]) [µM] | MIC (CA-MRSA (USA300-0114)) [µM] | MIC (HA-MRSA (ATCC 33591)) [µM] | MIC (E. faecalis (OG1RF)) [µM] | MIC (E. coli (MC4100)) [µM] | MIC (A. baumannii) [µM] | MIC (P. aeruginosa (PAO1); [2]) [µM] | Lysis20 (red blood cells) [µM] | MIC (MSSA (SH1000); MSSA, 72 h) [µM] | MIC (P. aeruginosa (PAO1); PAO1, 72 h) [µM]
1 | CCCCCCCC[P+](CC[P+](CCCCCCCC)(C1CCCCC1)C1CCCCC1)(C1CCCCC1)C1CCCCC1 [^CyP2P-8,8] | 2 | 2 | 8 | 63 | 63 | 125 | 250 | 125 |  | 
2 | CCCCCCCCCC[P+](CC[P+](CCCCCCCCCC)(C1CCCCC1)C1CCCCC1)(C1CCCCC1)C1CCCCC1 [^CyP2P-10,10] | 1 | 1 | 1 | 8 | 8 | 8 | 8 | 16 |  | 
3 | CCCCCCCCCCCC[P+](CC[P+](CCCCCCCCCCCC)(C1CCCCC1)C1CCCCC1)(C1CCCCC1)C1CCCCC1 [^CyP2P-12,12] | 2 | 2 | 2 | 16 | 8 | 4 | 16 | 16 |  | 
4 | CCCCCCCCCCCCC[P+](CC[P+](CCCCCCCCCCCCC)(C1CCCCC1)C1CCCCC1)(C1CCCCC1)C1CCCCC1 [^CyP2P-13,13] | 2 | 2 | 1 | 32 | 32 | 16 | 63 | 8 |  | 
5 | CCCCCCCCCCCCCC[P+](CC[P+](CCCCCCCCCCCCCC)(C1CCCCC1)C1CCCCC1)(C1CCCCC1)C1CCCCC1 [^CyP2P-14,14] | 4 | 4 | 2 | 32 | 63 | 63 | 63 | 8 |  | 
6 | CCCCCCCCCCCCCCCC[P+](CC[P+](CCCCCCCCCCCCCCCC)(C1CCCCC1)C1CCCCC1)(C1CCCCC1)C1CCCCC1 [^CyP2P-16,16] | 8 | 2 | 2 | 125 | 125 | 125 | 63 | 32 |  | 
7 | CCCCCCCC[P+](CC)(CC)CC[P+](CC)(CC)CCCCCCCC [^EtP2P-8,8] | 63 | 125 | 250 | > 250 | > 250 | > 250 | > 250 | 250 |  | 
8 | CCCCCCCCCC[P+](CC)(CC)CC[P+](CC)(CC)CCCCCCCCCC [^EtP2P-10,10] | 2 | 1 | 8 | 16 | 16 | 32 | 32 | 63 |  | 
9 | CCCCCCCCCCC[P+](CC)(CC)CC[P+](CC)(CC)CCCCCCCCCCC [^EtP2P-11,11] | 1 | 1 | 2 | 4 | 4 | 8 | 16 | 16 |  | 
10 | CCCCCCCCCCCCCC[P+](CC)(CC)CC[P+](CC)(CC)CCCCCCCCCCCCCC [^EtP2P-14,14] | 8 | 4 | 4 | 63 | 8 | 32 | 63 | 8 |  | 
11 | CCCCCCCCCCCCCCCC[P+](CC)(CC)CC[P+](CC)(CC)CCCCCCCCCCCCCCCC [^EtP2P-16,16] |  | 16 | 32 | 63 | 125 | 260 |  | 16 | 16 | 125
12 | CCCCCCCC[P+](C)(C)CC[P+](C)(C)CCCCCCCC [^MeP2P-8,8] | 125 | 125 | 250 | > 250 | > 250 | > 250 | > 250 | 250 |  | 
13 | CCCCCCCCC[P+](C)(C)CC[P+](C)(C)CCCCCCCCC [^MeP2P-9,9] | 8 | 8 | 16 | 125 | 125 | 250 | > 250 | 250 |  | 
14 | CCCCCCCCCC[P+](C)(C)CC[P+](C)(C)CCCCCCCCCC [^MeP2P-10,10] | 2 | 2 | 2 | 16 | 16 | 63 | 32 | 63 |  | 
15 | CCCCCCCCCCC[P+](C)(C)CC[P+](C)(C)CCCCCCCCCCC [^MeP2P-11,11] | 2 | 1 | 1 | 2 | 4 | 16 | 8 | 16 |  | 
16 | CCCCCCCCCCCCCC[P+](C)(C)CC[P+](C)(C)CCCCCCCCCCC [^MeP2P-14,14] | 8 | 4 | 8 | 32 | 32 | 125 | 63 | 8 |  | 
17 | CCCCCCCCCCCCCCCC[P+](C)(C)CC[P+](C)(C)CCCCCCCCCCC [^MeP2P-16,16] | 32 | 32 | 63 | 250 | 250 | > 250 | > 250 | 125 |  | 
18 | CCCCCCCCCC[P+](CC[P+](CCCCCCCCCC)(c1ccccc1)c1ccccc1)(c1ccccc1)c1ccccc1 [^PhP2P-10,10, reference compound] | 1 | 0.5 | 1 | 8 | 4 | 2 | 8 | 16 |  | 
